According to ChEMBL document CHEMBL5647693, “Molecular basis underlying resistance to Mps1/TTK inhibitors” (Oncogene, 2016):

How the values were obtained:
Experiment in all cases: cells
Type in all cases: functional, cell-based
[1] = system: HeLa; details: Homo sapiens, 120 h
[2] = system: HeLa; details: Homo sapiens, 120 h; remark: listed apart in the source
[3] = system: HCT-116; details: Homo sapiens, HCT-116, 120 h
[4] = system: DLD-1; details: Homo sapiens, DLD-1, 120 h
[5] = system: DLD-1; details: Homo sapiens, DLD-1, 120 h; remark: listed apart in the source
[6] = system: HCT-116; details: Homo sapiens, HCT-116, 120 h; remark: listed apart in the source
[7] = system: DLD-1; details: Homo sapiens, DLD-1, 120 h; remark: listed apart in the source
[8] = system: HeLa; details: Homo sapiens, 120 h; remark: listed apart in the source
[9] = system: U2OS; details: Homo sapiens, 120 h
[10] = system: HCT-116; details: Homo sapiens, HCT-116, 120 h; remark: listed apart in the source
[11] = system: HCT-116; details: Homo sapiens, HCT-116, 120 h; remark: listed apart in the source
[12] = system: HeLa; details: Homo sapiens, 120 h; remark: listed apart in the source

IC50 [1]	IC50 [2]	IC50 [3]	IC50 [4]	IC50 [5]	IC50 [6]	IC50 [7]	IC50 [8]	IC50 [9]	IC50 [10]	IC50 [11]	IC50 [12]	Compound
1.33 µM	1.72 µM	0.154 µM	1.02 µM	0.165 µM	> 2 µM	0.198 µM	> 2 µM	0.153 µM	0.171 µM	1.62 µM	0.433 µM	CCc1cccc(CC)c1NC(=O)c1nn(C)c2c1CCc1cnc(Nc3ccc(C(=O)NC4CCN(C)CC4)cc3OC(F)(F)F)nc1-2
3.85 µM	2.74 µM		> 5 µM		> 5 µM	0.719 µM	> 5 µM		0.56 µM	3.06 µM	1.33 µM	COc1cc(OC2CCN(C)CC2)ccc1Nc1ncc2c(n1)n(C1CCCC1)c(=O)n2C
